The values below come from patent US20230203096A1, “EPHA4 TARGETING COMPOUNDS AND METHODS OF USE THEREOF” (priority 2020, published 2023).

pKd: −log10 of the molar value. Like-named read-outs stand apart in the source and are kept apart here. Square brackets hold non-standard residues; d marks the D form. Peptide text beside a SMILES is read from it. * marks the point of attachment. Phe(4-(2-MeO-Ph)) = COc1ccccc1-c1ccc(C[C@H](N)C(=O)O)cc1; Cyclohexanoyl(1S,3S-3-NH2) = N[C@H]1CCC[C@H](C(=O)*)C1; Trp(5-OMe) = COc1ccc2[nH]cc(C[C@H](N)C(=O)O)c2c1; Trp(5-OH) = N[C@@H](Cc1c[nH]c2ccc(O)cc12)C(=O)O; NHPh(4-CH2-morpholino) = c1cc(N*)ccc1CN1CCOCC1; Bip = N[C@@H](Cc1ccc(-c2ccccc2)cc1)C(=O)O; hArg = N=C(N)NCCCC[C@H](N)C(=O)O; X2 = Fc1cc(N*)ccc1N1CCOCC1; X3 = c1cc(N2CCNCC2)ccc1N* Bounds are passed on as bounds.

Data set [1] deals with T1, recombinant EphA4 ligand binding domain (Homo sapiens, UniProt P54764, C204A).
T1 construct: His tag (N); made in house; host or cells: E. coli Rosetta-Gami B(DE3), pET15b
T1 sequence (P54764 29-209 C204A): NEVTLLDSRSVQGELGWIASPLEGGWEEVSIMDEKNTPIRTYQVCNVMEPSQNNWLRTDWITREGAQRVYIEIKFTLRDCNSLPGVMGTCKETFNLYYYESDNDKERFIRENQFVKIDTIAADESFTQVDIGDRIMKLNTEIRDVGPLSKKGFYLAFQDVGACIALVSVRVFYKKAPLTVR
Briefly: Isothermal titration calorimetry (ITC) against EphA4-LBD. The settings on record: for -TΔS / AH: ITC, EphA4-LBD. The protocol:
Peptides were synthesized by using standard solid-phase synthesis protocol, using the BAL resin as anchoring for the C-terminal amines. Isothermal Titration Calorimetry (ITC) measurements were performed in a reverse fashion by titrating the protein into the ligand solution. Solution nuclear magnetic resonance (NMR) experiments were conducted on a 700 MHz Bruker Avance spectrometer equipped with a TCI cryoprobe. Each protein sample was dissolved into an NMR tube at a final concentration of 20 μM (1% DMSO-d6) in the presence of 20 μM of each compound.
The fragments were transformed into Rosetta-Gami B(DE3) competent cells and grown in LB medium at 37° C. with 100 μg/mL of ampicillin until reaching an OD600 of 0.6-0.7 followed by induction with 0.4 mM IPTG overnight at 20° C. Bacteria were then collected by centrifugation and lysed by sonication at 4° C. […] EphA4 LBD with ^13C^ε/^1H^ε-Met labeled was expressed like previously described but adding a suspension of 100 mg of ^13C^ε/^1H^ε-Methionine in 1 mL of DMSO per liter of LB medium, 10 minutes before induction. […] Transformation, expression, and purification of EphA3-LBD chimera was performed as described above for EphA4-LBD.
Isothermal titration calorimetry (ITC) measurements were performed using the Affinity ITC Autosampler from TA Instruments (New Castle, Del.). The titrations were performed in a reverse fashion by titrating the protein into the ligand solution. […] The syringe was filled with a 100 μM solution of EphA4-LBD, EphA3-LBD Chimera, or EphA2-LBD, and 20 injections of 2.5 μL each were performed into the cell containing a 20 μM solution of the compounds. The injections were made at 200 s or 400 s intervals with a stirring speed of 75 rpm. All the solutions were kept in the autosampler at 4° C. The analysis of the thermodynamics signatures and for dissociation constant determination was performed by the NanoAnalyze software (TA Instruments, New Castle, Del.) and subsequently exported into Microsoft Excel.

The target in data set [2] is T2, ^13C^ε-Met-labeled EphA4-LBD (Homo sapiens, UniProt P54764, C204A).
T2 construct: His tag (N); made in house; host or cells: E. coli Rosetta-Gami B(DE3), pET15b
T2 sequence (P54764 29-209 C204A): as above
Briefly: 2D [13C,1H] HSQC NMR chemical shift perturbation of Met resonances. It counts as binding. As to conditions: for Δδ ^13C^ϵ/^1H^ϵ Met 164: protein 20 μM, 20 μM of each compound. As to the method:
Peptides were synthesized by using standard solid-phase synthesis protocol, using the BAL resin as anchoring for the C-terminal amines. Isothermal Titration Calorimetry (ITC) measurements were performed in a reverse fashion by titrating the protein into the ligand solution. Solution nuclear magnetic resonance (NMR) experiments were conducted on a 700 MHz Bruker Avance spectrometer equipped with a TCI cryoprobe. […]
2D [^13C,^1H] correlation NMR spectra measured with such protein targets, collected in absence or presence of test ligands can be used to monitor ligand binding and make, albeit qualitative, determinations on possible conformational changes induced by test ligands on the protein target. […] In targeting EphA4, an important aspect regarding the activity of its ligands is whether these agents could be predicted to work as antagonists or agonists.
NMR spectra were acquired on Bruker Avance III 700 MHz spectrometer equipped with a TCI cryoprobe. All NMR data were processed and analyzed using TOPSPIN 3.6.1 (Bruker, Billerica, Mass., USA).
Chemical shift changes (A) in the 2D [^13C, ^1H] spectra were calculated as weight average perturbations observed in the ^1H and ^13C dimensions using the following Equation: […]

Another data set is described as follows: Aqueous solubility. It counts as physicochemical.
The mark [3] stands for this setting: test ligands at 40 μM, EphA4-LDB at 20 μM, Table 8.

Broadly, the pKd is −log10 of the Kd, conventionally taken in molar units. As a reminder, the Kd is a measure of binding affinity in units of concentration. In general, Aqueous Solubility refers to the dissolved amount per volume that the medium holds. Read a high Aqueous Solubility as much dissolved substance. As for `COc1ccccc1-c1ccc(C[C@H](NC(=O)[C@H](Cc2c[nH]c3ccc(O)cc23)NC(=O)[C@H]2CCC[C@H](N)C2)C(=O)N[C@@H](CCCCNC(=N)N)C(=O)NCC(=O)Nc2ccc(CN3CCOCC3)cc2)cc1` [Compound 2, (1S,3S)-3-amino-N—((S)-1-(((S)-1-(((S)-6-guanidino-1-((2-((4-(morpholinomethyl)phenyl)amino)-2-oxoethyl)amino)-1-oxohexan-2-yl)amino)-3-(2′-methoxy-[1,1′-biphenyl]-4-yl)-1-oxopropan-2-yl)amino)-3-(5-hydroxy-1H-indol-3-yl)-1-oxopropan-2-yl)cyclohexane-1-carboxamide] ({Cyclohexanoyl(1S,3S-3-NH2)}-[Trp(5-OH)][Phe(4-(2-MeO-Ph))][hArg]G-{NHPh(4-CH2-morpholino)}), in data set [1], the pKd is 7.12, the “-TΔS” value was -0.97 kcal/mol and the “AH” value was -8.74 kcal/mol. For the same compound, in data set [1] (ITC with the ligand binding domain, Table 8, read-out: Kd (nM) vs EphA4), the Kd turned out to be 77 nM. In addition, the “Δδ ^13C^ϵ/^1H^ϵ Met 164” value in data set [2] was “+ (0< + <0.1 ppm)”. Also, in data set [2] (setting [3]), the “Δδ Met 60” value was “++ (0.1 ppm < ++ <0.2 ppm)”, the “Δδ Met 115” value is given as “+ (0< + <0.1 ppm)” and the “Δδ Met 164” value is “+ (0< + <0.1 ppm)”. The “Aqueous Solubility” value in “Aqueous solubility” was above 50 mM.
For `COc1ccc2[nH]cc(C[C@H](NC(=O)[C@H]3CCC[C@H](N)C3)C(=O)N[C@@H](Cc3ccc(-c4ccccc4)cc3)C(=O)N[C@@H](CCCCNC(=N)N)C(=O)NCC(=O)Nc3ccc(CN4CCOCC4)cc3)c2c1` [Compound 4] ({Cyclohexanoyl(1S,3S-3-NH2)}-[Trp(5-OMe)][Bip][hArg]G-{NHPh(4-CH2-morpholino)}), in data set [1], the pKd was 7.00, the “-TΔS” value was -3.57 kcal/mol and the “AH” value was -5.99 kcal/mol. Moreover, the “Δδ ^13C^ϵ/^1H^ϵ Met 164” value in data set [2] is on record as “+++ (0.2< +++ <0.25)”.
With `COc1ccc2[nH]cc(C[C@H](NC(=O)[C@H]3CCC[C@H](N)C3)C(=O)N[C@@H](Cc3ccc(-c4ccccc4OC)cc3)C(=O)N[C@@H](CCCCNC(=N)N)C(=O)NCC(=O)Nc3ccc(CN4CCOCC4)cc3)c2c1` [Compound 5] ({Cyclohexanoyl(1S,3S-3-NH2)}-[Trp(5-OMe)][Phe(4-(2-MeO-Ph))][hArg]G-{NHPh(4-CH2-morpholino)}), in data set [1], the pKd is 6.79, the “-TΔS” value was -2.25 kcal/mol and the “AH” value was -7.00 kcal/mol. The “Δδ ^13C^ϵ/^1H^ϵ Met 164” value in data set [2] is listed as “++ (0.1 ppm < ++ < 0.2 ppm)”.
As for `COc1ccccc1-c1ccc(C[C@H](NC(=O)[C@H](Cc2c[nH]c3ccc(O)cc23)NC(=O)[C@H]2CCC[C@H](N)C2)C(=O)N[C@@H](CCCCNC(=N)N)C(=O)NCC(=O)Nc2ccc(N3CCOCC3)c(F)c2)cc1` [Compound 16] ({Cyclohexanoyl(1S,3S-3-NH2)}-[Trp(5-OH)][Phe(4-(2-MeO-Ph))][hArg]G-X2), in data set [1], the pKd is 6.90, the “-TΔS” value came to 0.58 kcal/mol and the “AH” value was -10.00 kcal/mol. Further, the “Δδ ^13C^ϵ/^1H^ϵ Met 164” value in data set [2] is given as “+ (0< + <0.1 ppm)”.
On the same counts, the results for `N=C(N)NCCCC[C@H](NC(=O)[C@H](Cc1ccc(-c2ccccc2)cc1)NC(=O)[C@H](Cc1c[nH]c2ccc(O)cc12)NC(=O)[C@H]1CCC[C@H](N)C1)C(=O)NCC(=O)Nc1ccc(N2CCNCC2)cc1` [Compound 10] ({Cyclohexanoyl(1S,3S-3-NH2)}-[Trp(5-OH)][Bip][hArg]G-X3) are 7.05, -1.35 kcal/mol, -8.27 kcal/mol and “++++ (++++ >0.25 ppm)”.
